The values below come from patent publication US20240376120A1, “CAMPTOTHECIN COMPOUND, PREPARATION METHOD THEREFOR AND USE THEREOF” (priority 2021, published 2024).

Molecules are shown by their SMILES. pIC50: −log10 of the molar value.

One assay has as its system MDA-MB-231 cells (human breast cancer cells). As to the kind of experiment: MDA-MB-231 cell proliferation inhibitory assay (CellTiter-Glo). It counts as cell-based. As to conditions: Homo sapiens, MDA-MB-231, 72 h, read-out: Proliferation inhibition IC50. As to the method:
(§1) • 1). […] Resuspend an appropriate amount of cell suspension to 3000 cells/100 μL according to the count, mixed well and then put the corresponding number of cells into a 96-well plate by pipette. • 3). Each hole of the edge was sealed with 100 μL DPBS and put into an incubator for culture. • 4). Day 1 drug addition: Prepare the storage solution of the compound to be tested 1 hour in advance. 24 h after plating, the culture medium was gradiently diluted to a concentration twice the final concentration of each group. Take out the plated cells from the incubator and add 100 μL of the corresponding 2-fold concentration medium to each well by pipette. • 5). Day 1 detected: Take out an appropriate amount of CTG 1 h in advance and the plate was allowed to equilibrate at room temperature for 30 min. 100 μL of CTG was added to each well and shaken for 5 mins, and then standed in the dark for 5 mins, the luminescence value was detected by ELISA. • 6). Day 4 detection: Take an appropriate amount of CTG 1 h in advance and rewarm it at room temperature in the dark. At the same time, take out the plate to be tested from the incubator and leave it to equilibrate at room temperature for 30 minutes; 72 h after adding the drug, 100 μL of culture medium was sucked out with pipette carefully from each cell well, and 100 μL of CTG was added. The mixture was shaken for 5 min, and after equilibration in the dark for 5 min, the luminescence value was detected with ELISA. • 7). Analyze data and write detailed experimental records.
(§2) Input the compound into graphpad prism to obtain the corresponding IC50 value.
Take `CC[C@@]1(O)C(=O)OCc2c1cc1n(c2=O)Cc2c-1nc1cc(F)c(F)cc1c2[C@H](C)N` [Example 33a]: the pIC50 was 7.96.
On the same count and under the same terms, the value for `CC[C@@]1(O)C(=O)OCc2c1cc1n(c2=O)Cc2c-1nc1cc(F)c(F)cc1c2[C@@H](C)N` [Example 33b] was 7.61; that for `CC[C@@]1(O)C(=O)OCc2c1cc1n(c2=O)Cc2c-1nc1cc(F)c(C(F)(F)F)cc1c2[C@H](C)N` [Example 34a] was 7.94; that for `CC[C@@]1(O)C(=O)OCc2c1cc1n(c2=O)Cc2c-1nc1cc(F)c(C(F)(F)F)cc1c2[C@@H](C)N` [Example 34b] was 8.06.
Still for that read-out and setting: the same measure for `CC[C@@]1(O)C(=O)OCc2c1cc1n(c2=O)Cc2c-1nc1cc3c(cc1c2[C@H](C)N)OCO3` [Example 35a]: 7.69.
As to `CC[C@@]1(O)C(=O)OCc2c1cc1n(c2=O)Cc2c-1nc1cc3c(cc1c2[C@@H](C)N)OCO3` [Example 35b], the pIC50 is 8.15.
On the same count and under the same terms, the same measure for `CC[C@@]1(O)C(=O)OCc2c1cc1n(c2=O)Cc2c-1nc1cc3c(cc1c2[C@H](C)N)OCCO3` [Example 36a]: 7.58.
On the same count and under the same terms, the value for `CC[C@@]1(O)C(=O)OCc2c1cc1n(c2=O)Cc2c-1nc1cc3c(cc1c2[C@@H](C)N)OCCO3` [Example 36b] was 7.81.
On the same count and under the same terms, the value for `CC[C@@]1(O)C(=O)OCc2c1cc1n(c2=O)Cc2c-1nc1cc(F)c(C)cc1c2C1CNC1` [Example 37] was 7.04.
`CC[C@@]1(O)C(=O)OCc2c1cc1n(c2=O)Cc2c-1nc1cc(F)c(C)cc1c2[C@@H]1CCN1` [Example 38a]: the pIC50 is 7.78.
Still for that read-out and setting: the value for `CC[C@@]1(O)C(=O)OCc2c1cc1n(c2=O)Cc2c-1nc1cc(F)c(C)cc1c2[C@H]1CCN1` [Example 38b] was 8.21.
Same read-out and setting: the same measure for `CC[C@@]1(O)C(=O)OCc2c1cc1n(c2=O)Cc2c-1nc1cc(F)c(C)cc1c2[C@@H](N)CO` [Example 39a]: 7.59.
Regarding `CC[C@@]1(O)C(=O)OCc2c1cc1n(c2=O)Cc2c-1nc1cc(F)c(C)cc1c2[C@H](N)CO` [Example 39b], the pIC50 was 8.04.
On the same count and under the same terms, the same measure for `CC[C@@]1(O)C(=O)OCc2c1cc1n(c2=O)Cc2c-1nc1cc(F)c(C)cc1c2[C@@H](N)C(F)(F)F` [Example 40a]: 7.30.
Same read-out and setting: the same measure for `CC[C@@]1(O)C(=O)OCc2c1cc1n(c2=O)Cc2c-1nc1cc(F)c(C)cc1c2[C@H](N)C(F)(F)F` [Example 40b]: 7.59.

Still in this assay, the particulars now being: Homo sapiens; MDA-MB-231 cells, 72 h after adding the drug, Table 2; read-out: Proliferation inhibition IC50.
On to `CC[C@@]1(O)C(=O)OCc2c1cc1n(c2=O)Cc2c-1nc1cc(F)c(C)cc1c2[C@@H](C)NCCNC` [Example 25d], for which the pIC50 was 7.30.

The test system of another assay is MCF-7 cells (human breast cancer cells). Nature of the assay: MCF-7 cell proliferation inhibitory assay (CellTiter-Glo). It counts as cell-based. To be noted: Homo sapiens, MCF7, 72 h, read-out: Proliferation inhibition IC50. As to the method: • 1). […] Resuspend an appropriate amount of cell suspension to 4000 cells/100 μL according to the count, mixed well and then put the corresponding number of cells into a 96-well plate by pipette. • 3). Each hole of the edge was sealed with 100 μL DPBS and put into an incubator for culture. • 4). Day 1 drug addition: Prepare the storage solution of the compound to be tested 1 hour in advance. 24 h after plating, the culture medium was gradiently diluted to a concentration twice the final concentration of each group. Take out the plated cells from the incubator and add 100 μL of the corresponding 2-fold concentration medium to each well by pipette.
Day 1 detected: Take out the plate to be tested and an appropriate amount of CTG in advance and rewarm it at room temperature in the dark. 50 μL of CTG was added to each well at 24 h. Shake with the oscillator for 5 minutes, and after balancing in the dark for 5 minutes, detect the luminescence value with a microplate reader; The mixture was shaken for 5 min, and after equilibration in the dark for 5 min, the luminescence value was detected with ELISA. • 6). Day 4 detection: Take an appropriate amount of CTG 1 h in advance and rewarm it at room temperature in the dark. At the same time, take out the plate to be tested from the incubator and leave it to equilibrate at room temperature for 30 minutes; 72 h after adding the drug, 100 μL of culture medium was sucked out with pipette carefully from each cell well, and 50 μL of CTG was added. The mixture was shaken for 5 min, and after equilibration in the dark for 5 min, the luminescence value was detected with ELISA analyzer. • 7). Data analysis and processed.
Collect data and convert it into survival rate: Inhibition rate (%)=(100−(OD value of compound-OD value on the first day)/(OD value of control well-OD value on the first day))×100%
as §2
With `CC[C@@]1(O)C(=O)OCc2c1cc1n(c2=O)Cc2c-1nc1cc(F)c(F)cc1c2[C@H](C)N` [Example 33a], the pIC50 is 8.19.
As to `CC[C@@]1(O)C(=O)OCc2c1cc1n(c2=O)Cc2c-1nc1cc(F)c(F)cc1c2[C@@H](C)N` [Example 33b], the pIC50 was 8.07.
Still for that read-out and setting: the same measure for `CC[C@@]1(O)C(=O)OCc2c1cc1n(c2=O)Cc2c-1nc1cc(F)c(C(F)(F)F)cc1c2[C@H](C)N` [Example 34a]: 8.02.
Still for that read-out and setting: the value for `CC[C@@]1(O)C(=O)OCc2c1cc1n(c2=O)Cc2c-1nc1cc(F)c(C(F)(F)F)cc1c2[C@@H](C)N` [Example 34b] was 8.38; that for `CC[C@@]1(O)C(=O)OCc2c1cc1n(c2=O)Cc2c-1nc1cc3c(cc1c2[C@H](C)N)OCO3` [Example 35a] was 7.99.
Still for that read-out and setting: the same measure for `CC[C@@]1(O)C(=O)OCc2c1cc1n(c2=O)Cc2c-1nc1cc3c(cc1c2[C@@H](C)N)OCO3` [Example 35b]: 8.21.
With `CC[C@@]1(O)C(=O)OCc2c1cc1n(c2=O)Cc2c-1nc1cc3c(cc1c2[C@H](C)N)OCCO3` [Example 36a], the pIC50 is 7.82.
Take `CC[C@@]1(O)C(=O)OCc2c1cc1n(c2=O)Cc2c-1nc1cc3c(cc1c2[C@@H](C)N)OCCO3` [Example 36b]: the pIC50 was 8.08.
In the case of `CC[C@@]1(O)C(=O)OCc2c1cc1n(c2=O)Cc2c-1nc1cc(F)c(C)cc1c2C1CNC1` [Example 37], the pIC50 is 8.29.
Still for that read-out and setting: the same measure for `CC[C@@]1(O)C(=O)OCc2c1cc1n(c2=O)Cc2c-1nc1cc(F)c(C)cc1c2[C@@H]1CCN1` [Example 38a]: 8.25; for `CC[C@@]1(O)C(=O)OCc2c1cc1n(c2=O)Cc2c-1nc1cc(F)c(C)cc1c2[C@H]1CCN1` [Example 38b]: 8.70; for `CC[C@@]1(O)C(=O)OCc2c1cc1n(c2=O)Cc2c-1nc1cc(F)c(C)cc1c2[C@@H](N)CO` [Example 39a]: 8.01.
Still for that read-out and setting: the same measure for `CC[C@@]1(O)C(=O)OCc2c1cc1n(c2=O)Cc2c-1nc1cc(F)c(C)cc1c2[C@H](N)CO` [Example 39b]: 8.34; for `CC[C@@]1(O)C(=O)OCc2c1cc1n(c2=O)Cc2c-1nc1cc(F)c(C)cc1c2[C@@H](N)C(F)(F)F` [Example 40a]: 8.18.
Same read-out and setting: the same measure for `CC[C@@]1(O)C(=O)OCc2c1cc1n(c2=O)Cc2c-1nc1cc(F)c(C)cc1c2[C@H](N)C(F)(F)F` [Example 40b]: 8.46.

Staying with this assay, now noted: Homo sapiens, MCF7; MCF-7 cells, 72 h after adding the drug, Table 1; read-out: Proliferation inhibition IC50.
Take `CC[C@@]1(O)C(=O)OCc2c1cc1n(c2=O)Cc2c-1nc1cc(F)c(C)cc1c2[C@@H](C)NCCNC` [Example 25d]: the pIC50 is 7.65.

Another assay deals with MDA-MB-435s cells (human melanoma cells). As to the kind of experiment: MDA-MB-435s cell proliferation inhibitory assay (CellTiter-Glo). The assay is classed as cell-based. To be noted: Homo sapiens, MDA-MB-435S, 72 h, read-out: Proliferation inhibition IC50. The protocol: as §1
Collect data and convert it into survival rate: Inhibition rate (%)=(100−(OD value of compound−OD value on the first day)/(OD value of control well-OD value on the first day))×100%
as §2
(In ATP-based viability assays light output follows the ATP content of the culture.)
Consider `CC[C@@]1(O)C(=O)OCc2c1cc1n(c2=O)Cc2c-1nc1cc(F)c(F)cc1c2[C@H](C)N` [Example 33a], for which the pIC50 was 8.63.
Same read-out and setting: the same measure for `CC[C@@]1(O)C(=O)OCc2c1cc1n(c2=O)Cc2c-1nc1cc(F)c(F)cc1c2[C@@H](C)N` [Example 33b]: 9.07.
Still for that read-out and setting: the same measure for `CC[C@@]1(O)C(=O)OCc2c1cc1n(c2=O)Cc2c-1nc1cc(F)c(C(F)(F)F)cc1c2[C@H](C)N` [Example 34a]: 8.36.
For the compound `CC[C@@]1(O)C(=O)OCc2c1cc1n(c2=O)Cc2c-1nc1cc(F)c(C(F)(F)F)cc1c2[C@@H](C)N` [Example 34b], the pIC50 was 8.55.
Still for that read-out and setting: the same measure for `CC[C@@]1(O)C(=O)OCc2c1cc1n(c2=O)Cc2c-1nc1cc3c(cc1c2[C@H](C)N)OCO3` [Example 35a]: 8.48; for `CC[C@@]1(O)C(=O)OCc2c1cc1n(c2=O)Cc2c-1nc1cc3c(cc1c2[C@@H](C)N)OCO3` [Example 35b]: 8.94.
On the same count and under the same terms, the same measure for `CC[C@@]1(O)C(=O)OCc2c1cc1n(c2=O)Cc2c-1nc1cc3c(cc1c2[C@H](C)N)OCCO3` [Example 36a]: 8.20; for `CC[C@@]1(O)C(=O)OCc2c1cc1n(c2=O)Cc2c-1nc1cc3c(cc1c2[C@@H](C)N)OCCO3` [Example 36b]: 8.50; for `CC[C@@]1(O)C(=O)OCc2c1cc1n(c2=O)Cc2c-1nc1cc(F)c(C)cc1c2C1CNC1` [Example 37]: 8.63.
The same measure, in the same setting: the same measure for `CC[C@@]1(O)C(=O)OCc2c1cc1n(c2=O)Cc2c-1nc1cc(F)c(C)cc1c2[C@@H]1CCN1` [Example 38a]: 8.95.
On to `CC[C@@]1(O)C(=O)OCc2c1cc1n(c2=O)Cc2c-1nc1cc(F)c(C)cc1c2[C@H]1CCN1` [Example 38b], for which the pIC50 is 9.19.
Still for that read-out and setting: the same measure for `CC[C@@]1(O)C(=O)OCc2c1cc1n(c2=O)Cc2c-1nc1cc(F)c(C)cc1c2[C@@H](N)CO` [Example 39a]: 8.67.
The same measure, in the same setting: the value for `CC[C@@]1(O)C(=O)OCc2c1cc1n(c2=O)Cc2c-1nc1cc(F)c(C)cc1c2[C@H](N)CO` [Example 39b] was 8.78; that for `CC[C@@]1(O)C(=O)OCc2c1cc1n(c2=O)Cc2c-1nc1cc(F)c(C)cc1c2[C@@H](N)C(F)(F)F` [Example 40a] was 8.39; that for `CC[C@@]1(O)C(=O)OCc2c1cc1n(c2=O)Cc2c-1nc1cc(F)c(C)cc1c2[C@H](N)C(F)(F)F` [Example 40b] was 8.58.

Still in this assay, the particulars now being: Homo sapiens; MDA-MB-435s cells, 72 h after adding the drug, Table 3; read-out: Proliferation inhibition IC50.
As to `CC[C@@]1(O)C(=O)OCc2c1cc1n(c2=O)Cc2c-1nc1cc(F)c(C)cc1c2[C@@H](C)NCCNC` [Example 25d], the pIC50 is 8.28.
